Laboratory results: the NIST ThermoML archive (doi:10.1016/j.jct.2013.09.010)
Values joined by “and” are separate entries in the source; they are usually repeats but may differ in a detail not shown here. Equal values may be shown once. Numbers after ± are expanded uncertainties.

Columns and labels:
[1] = molar heat capacity at constant pressure; conditions: 101 kPa, Liquid, Small sample (50 mg) DSC
[2] = Liquid, Vibrating tube method

CCCC(=O)[O-].C[NH2+]CCO [N-methyl-2-hydroxyethylammonium butanoate]
[1]
Conditions	molar heat capacity at constant pressure
286.15 K	357.3 ± 15 J/K/mol
287.15 K	358.4 ± 15 J/K/mol
288.15 K	357 ± 15 J/K/mol
290.15 K	358.9 ± 15 J/K/mol
291.15 K	360.7 ± 15 J/K/mol
292.15 K	356.8 ± 15 J/K/mol
293.15 K	358.6 ± 15 J/K/mol
294.15 K	361 ± 15 J/K/mol and 360.1 ± 15 J/K/mol
295.15 K	358.1 ± 15 J/K/mol and 360.9 ± 15 J/K/mol
296.15 K	361.7 ± 15 J/K/mol and 357.1 ± 15 J/K/mol
297.15 K	362.7 ± 15 J/K/mol and 358.9 ± 15 J/K/mol
298.15 K	363.2 ± 15 J/K/mol and 359.6 ± 15 J/K/mol
299.15 K	364 ± 15 J/K/mol and 360.7 ± 15 J/K/mol
300.15 K	364.6 ± 16 J/K/mol and 361.2 ± 15 J/K/mol
301.15 K	361.7 ± 15 J/K/mol and 365.3 ± 16 J/K/mol
302.15 K	362.2 ± 15 J/K/mol and 365.8 ± 16 J/K/mol
303.15 K	362.3 ± 15 J/K/mol and 366.4 ± 16 J/K/mol
304.15 K	362.8 ± 15 J/K/mol and 367.1 ± 16 J/K/mol
305.15 K	363.3 ± 15 J/K/mol and 367.6 ± 16 J/K/mol
306.15 K	363.8 ± 15 J/K/mol and 368 ± 16 J/K/mol
307.15 K	364.3 ± 16 J/K/mol and 368.5 ± 16 J/K/mol
308.15 K	364.8 ± 16 J/K/mol and 368.9 ± 16 J/K/mol
309.15 K	364.9 ± 16 J/K/mol and 369.4 ± 16 J/K/mol
310.15 K	365.4 ± 16 J/K/mol and 369.7 ± 16 J/K/mol
311.15 K	365.8 ± 16 J/K/mol and 370.3 ± 16 J/K/mol
312.15 K	366.4 ± 16 J/K/mol and 370.8 ± 16 J/K/mol
313.15 K	367.2 ± 16 J/K/mol and 371.5 ± 16 J/K/mol
314.15 K	368 ± 16 J/K/mol and 372.1 ± 16 J/K/mol
315.15 K	368.7 ± 16 J/K/mol and 372.8 ± 16 J/K/mol
316.15 K	369.2 ± 16 J/K/mol and 373.6 ± 16 J/K/mol
317.15 K	369.5 ± 16 J/K/mol and 374.3 ± 16 J/K/mol
318.15 K	369.7 ± 16 J/K/mol and 374.7 ± 16 J/K/mol
319.15 K	370 ± 16 J/K/mol and 375.4 ± 16 J/K/mol
320.15 K	370.2 ± 16 J/K/mol and 375.7 ± 16 J/K/mol
321.15 K	370.7 ± 16 J/K/mol and 376.2 ± 16 J/K/mol
322.15 K	371.2 ± 16 J/K/mol and 376.9 ± 16 J/K/mol
323.15 K	371.5 ± 16 J/K/mol and 377.5 ± 16 J/K/mol
324.15 K	372.1 ± 16 J/K/mol and 378.2 ± 16 J/K/mol
325.15 K	372.8 ± 16 J/K/mol and 378.7 ± 16 J/K/mol
326.15 K	373.8 ± 16 J/K/mol and 379.3 ± 16 J/K/mol
327.15 K	374.7 ± 16 J/K/mol and 380.1 ± 16 J/K/mol
328.15 K	375.4 ± 16 J/K/mol and 380.6 ± 16 J/K/mol
329.15 K	375.7 ± 16 J/K/mol and 381.3 ± 16 J/K/mol
330.15 K	375.6 ± 16 J/K/mol and 381.8 ± 16 J/K/mol
331.15 K	375.4 ± 16 J/K/mol and 382.1 ± 16 J/K/mol
332.15 K	375.2 ± 16 J/K/mol and 382.9 ± 16 J/K/mol
333.15 K	374.9 ± 16 J/K/mol and 383.1 ± 16 J/K/mol
334.15 K	375.2 ± 16 J/K/mol and 383.9 ± 16 J/K/mol
335.15 K	375.7 ± 16 J/K/mol and 384.7 ± 16 J/K/mol
336.15 K	377.2 ± 16 J/K/mol

mass density [kg/m3], [2]
Conditions	298.15 K	308.15 K	318.15 K	328.15 K	338.15 K	348.15 K	358.15 K
100 kPa	1035.29 ± 2	1028.57 ± 2	1021.88 ± 2	1015.21 ± 2	1008.57 ± 2	1001.95 ± 2	995.35 ± 2
5000 kPa	1037.49 ± 2	1030.87 ± 2	1024.28 ± 2	1017.71 ± 2	1011.17 ± 2	1004.66 ± 2	998.16 ± 2
10000 kPa	1039.66 ± 2	1033.14 ± 2	1026.66 ± 2	1020.2 ± 2	1013.77 ± 2	1007.36 ± 2	1000.98 ± 2
15000 kPa	1041.88 ± 2	1035.43 ± 2	1029.02 ± 2	1022.64 ± 2	1016.3 ± 2	1010 ± 2	1003.73 ± 2
20000 kPa	1043.97 ± 2	1037.61 ± 2	1031.28 ± 2	1024.99 ± 2	1018.73 ± 2	1012.5 ± 2	1006.31 ± 2
25000 kPa	1046.02 ± 2	1039.73 ± 2	1033.49 ± 2	1027.31 ± 2	1021.17 ± 2	1015.08 ± 2	1009.04 ± 2

CCC(=O)[O-].C[NH2+]CCO [2-hydroxy-N-methylethanaminium propionate]
[1]
Conditions	molar heat capacity at constant pressure
287.15 K	322.8 ± 14 J/K/mol
288.15 K	324.3 ± 14 J/K/mol and 323.1 ± 14 J/K/mol and 322.8 ± 14 J/K/mol
289.15 K	324.5 ± 14 J/K/mol [middle of 4 runs]
290.15 K	324.8 ± 14 J/K/mol [middle of 5 runs]
291.15 K	324.9 ± 14 J/K/mol [middle of 5 runs]
292.15 K	325.7 ± 14 J/K/mol [middle of 5 runs]
293.15 K	326.1 ± 14 J/K/mol [middle of 5 runs]
294.15 K	326.6 ± 14 J/K/mol [middle of 4 runs]
295.15 K	327 ± 14 J/K/mol [middle of 4 runs]
296.15 K	327.2 ± 14 J/K/mol [middle of 4 runs]
297.15 K	327.5 ± 14 J/K/mol [middle of 5 runs]
298.15 K	327.9 ± 14 J/K/mol [middle of 4 runs]
299.15 K	328.2 ± 14 J/K/mol [middle of 5 runs]
300.15 K	328.7 ± 14 J/K/mol [middle of 5 runs]
301.15 K	329.1 ± 14 J/K/mol [middle of 5 runs]
302.15 K	329.4 ± 14 J/K/mol [middle of 5 runs]
303.15 K	329.7 ± 14 J/K/mol [middle of 5 runs]
304.15 K	329.9 ± 14 J/K/mol [middle of 4 runs]
305.15 K	330 ± 14 J/K/mol [middle of 4 runs]
306.15 K	330.7 ± 14 J/K/mol and 330.2 ± 14 J/K/mol and 329.6 ± 14 J/K/mol
307.15 K	329.9 ± 14 J/K/mol
308.15 K	330.2 ± 14 J/K/mol
309.15 K	330.5 ± 14 J/K/mol
310.15 K	330.9 ± 14 J/K/mol
311.15 K	331.2 ± 14 J/K/mol
312.15 K	331.6 ± 14 J/K/mol
313.15 K	332.1 ± 14 J/K/mol
314.15 K	332.4 ± 14 J/K/mol
315.15 K	332.7 ± 14 J/K/mol
316.15 K	332.8 ± 14 J/K/mol
317.15 K	333 ± 14 J/K/mol
318.15 K	333.1 ± 14 J/K/mol
319.15 K	333.4 ± 14 J/K/mol
320.15 K	333.6 ± 14 J/K/mol
321.15 K	333.9 ± 14 J/K/mol
322.15 K	334 ± 14 J/K/mol
323.15 K	334.5 ± 14 J/K/mol
324.15 K	334.9 ± 14 J/K/mol
325.15 K	335.4 ± 14 J/K/mol
326.15 K	335.8 ± 14 J/K/mol

mass density [kg/m3], [2]
Conditions	100 kPa	2000 kPa	3000 kPa	5000 kPa	10000 kPa	15000 kPa	20000 kPa	25000 kPa
298.15 K	1065.75 ± 2	1066.51 ± 2	1066.95 ± 2	1067.8 ± 2	1069.86 ± 2	1071.89 ± 2	1073.87 ± 2	1075.79 ± 2
303.15 K	1062.59 ± 2	1063.37 ± 2	1063.82 ± 2	1064.69 ± 2	1066.79 ± 2	1068.87 ± 2	1070.88 ± 2	1072.86 ± 2
308.15 K	1059.41 ± 2	1060.21 ± 2	1060.67 ± 2	1061.55 ± 2	1063.7 ± 2	1065.82 ± 2	1067.88 ± 2	1069.9 ± 2
313.15 K	1056.21 ± 2	1057.03 ± 2	1057.51 ± 2	1058.4 ± 2	1060.6 ± 2	1062.76 ± 2	1064.86 ± 2	1066.92 ± 2
318.15 K	1052.99 ± 2	1053.83 ± 2	1054.32 ± 2	1055.23 ± 2	1057.47 ± 2	1059.68 ± 2	1061.82 ± 2	1063.93 ± 2
323.15 K	1049.76 ± 2	1050.61 ± 2	1051.11 ± 2	1052.04 ± 2	1054.32 ± 2	1056.58 ± 2	1058.76 ± 2	1060.91 ± 2
328.15 K	1046.5 ± 2	1047.37 ± 2	1047.89 ± 2	1048.84 ± 2	1051.16 ± 2	1053.47 ± 2	1055.68 ± 2	1057.87 ± 2
333.15 K	1043.23 ± 2	1044.11 ± 2	1044.64 ± 2	1045.61 ± 2	1047.97 ± 2	1050.33 ± 2	1052.59 ± 2	1054.82 ± 2
338.15 K	1039.93 ± 2	1040.84 ± 2	1041.38 ± 2	1042.36 ± 2	1044.77 ± 2	1047.17 ± 2	1049.47 ± 2	1051.74 ± 2
343.15 K	1036.62 ± 2	1037.54 ± 2	1038.1 ± 2	1039.1 ± 2	1041.55 ± 2	1043.99 ± 2	1046.33 ± 2	1048.65 ± 2
348.15 K	1033.29 ± 2	1034.23 ± 2	1034.8 ± 2	1035.81 ± 2	1038.3 ± 2	1040.8 ± 2	1043.17 ± 2	1045.54 ± 2
353.15 K	1029.94 ± 2	1030.9 ± 2	1031.48 ± 2	1032.51 ± 2	1035.04 ± 2	1037.58 ± 2	1040 ± 2	1042.4 ± 2
358.15 K	1026.57 ± 2	1027.55 ± 2	1028.14 ± 2	1029.19 ± 2	1031.76 ± 2	1034.35 ± 2	1036.8 ± 2	1039.25 ± 2
